Laboratory results taken from article PMC10687119, “Quaternary Ammonium Salts of Cationic Lipopeptides with Lysine Residues — Synthesis, Antimicrobial, Hemolytic and Cytotoxic Activities” (Probiotics and Antimicrobial Proteins, 2023).
Values after ≈ are worked out from the molar mass of the structure shown. Where a SMILES comes first, the peptide text is derived from it. [ ]: non-standard residue; d: D form. The star is where a group is joined. Lys(Me3) = C[N+](C)(C)CCCC[C@H](N)C(=O)O; Stearoyl = CCCCCCCCCCCCCCCCCC(=O)*; Myristoyl = CCCCCCCCCCCCCC(=O)*

Columns and labels:
[1] = test system: E. faecium ATCC 700221; type: cell-based, Enterococcus faecium; settings: ATCC 700221, 18 h
Experimental: (§1) The Acinetobacter baumannii ATCC BAA-1605, Enterococcus faecium ATCC 700221, Klebsiella aerogenes ATCC 13048, Klebsiella pneumoniae ATCC 700603, Pseudomonas aeruginosa ATCC 9027, Staphylococcus aureus ATCC 33591, Candida glabrata ATCC 15126 strains were acquired from the American Type Culture Collection (ATCC, Manassas, USA). All the strains were stored at −80 °C in Roti-Store cryo vials (Carl Roth GmbH, Germany) and before the tests were transferred into fresh Mueller–Hinton broth (MHB, Becton Dickinson, Poland) for bacteria or RPMI-1640 (Sigma-Aldrich, Germany) for fungi and incubated for 24 h at 37 °C. Then, the cultures were cultured on the Mueller–Hinton agar (BioMaxima, Poland) or Sabouraud dextrose agar (SDA, BioMaxima) plates, respectively, and incubated as just mentioned. For microbiological assays, a minimum of three to five well-isolated colonies of the same morphological type were carefully picked from the agar cultures. These colonies were transferred with sterile loop into fresh microbiological medium and incubated with shaking (100 rpm) at 37 °C until they reached logarithmic phase of growth. Cell densities for all assays were adjusted through spectrophotometric measurements (Multiskan GO Microplate Spectrophotometer, Thermo Fisher Scientific, Finland) at 600 and 530 nm for bacteria and fungi, respectively.
(§2) The MICs were determined by broth microdilution method according to the Clinical and Laboratory Standard Institute guidelines. For this purpose, initial inoculums of bacteria (5 × 10^5 CFU/mL) in MHB and yeasts (2 × 10^3 CFU/mL) in RPMI-1640 with 2% D-glucose were exposed to the ranging concentration of lipopeptides (1–512 μg/mL) and incubated at 37 °C for 18 h and 24 h, respectively. The experiments were conducted on 96-well microtiter polystyrene plates (Kartell, Italy). The growth was assessed visually after incubation and the MIC was assumed as the lowest peptide concentration at which a noticeable growth of microorganisms was inhibited. Benzalkonium chloride (Sigma-Aldrich, Germany) was used as reference compound. All experiments were conducted in triplicate.

[2] = test system: S. aureus ATCC 33591; type: cell-based, Staphylococcus aureus; settings: ATCC 33591, 18 h
Experimental: as §1, §2

[3] = test system: K. pneumoniae ATCC 700603; type: cell-based, Klebsiella pneumoniae; settings: ATCC 700603, 18 h
Experimental: as §1, §2

[4] = test system: A. baumannii ATCC BAA 1605; type: cell-based, Acinetobacter baumannii; settings: ATCC BAA 1605, 18 h
Experimental: as §1, §2

[5] = test system: P. aeruginosa ATCC 9027; type: cell-based, Pseudomonas aeruginosa; settings: ATCC 9027, 18 h
Experimental: as §1, §2

[6] = test system: K. aerogenes ATCC 13048; type: cell-based, Klebsiella aerogenes; settings: ATCC 13048, 18 h
Experimental: as §1, §2

[7] = test system: C. glabrata ATCC 15126; type: cell-based, Candida glabrata; settings: ATCC 15126, 24 h
Experimental: as §1, §2

[8] = test system: human red blood cells (RBCs); type: cell-based; settings: red cells of human
Experimental: The hemolysis assay was conducted using a procedure described previously. For this purpose, human red blood cells (RBCs) isolated from K2EDTA Single Donor Human Whole blood (Innovative Research, Inc, MI, USA) were rinsed with Phosphate-buffer saline (PBS, pH 7.4±0.05, composition - KCl 2.7 mM, NaCl 140 mM, phosphate 10mM; AppliChem GmbH, Germany) by centrifugation for 10 min at 800 × g. This process was repeated 3 times and the RBCs were resuspended in PBS. Then, the stock solution of RBCs was added to the serial dilution of lipopeptides on 96-well polystyrene plates to reach a final volume of 100 μL with a 4% concentration of erythrocytes (v/v) and a concentration range of 1-512 μg/mL of tested compounds. The control wells for 0% and 100% hemolysis consisted of RBCs suspended in PBS and 1% of Triton X-100 (Sigma-Aldrich, Germany), respectively. Benzalkonium chloride (Sigma-Aldrich, Germany) was used as reference compound. Subsequently, the plates were incubated for 60 min at 37 °C and then centrifuged at 800 × g for 10 min at 4 °C (Sorvall ST […] Centrifuge, Thermo Scientific). The supernatant was carefully […] to new microtiter plates. The release of hemoglobin was monitored absorbance measurements at 540 nm (MultiskanTM GO Microplate Spectrophotometer, Thermo Scientific). All experiments were conducted in triplicate. HC50 was calculated using an ic50.tk tool.

[9] = test system: human keratinocyte cell line (HaCaT); type: cell-based; settings: 24 h
Experimental: The immortalized human keratinocyte cell line (HaCaT), obtained from CLS (Cell Line Service, Germany) was cultured in DMEM-high glucose (Dulbecco’s Modified Eagle Medium) supplemented with 10% fetal bovine serum, 2 mM L-glutamine, 100 U/mL penicillin and 100 μg/mL streptomycin (Sigma-Aldrich; Merck KGaA) at 37 °C in a humidified atmosphere with 5% CO2. Cells were trypsinized, and the medium was renewed 2–3 times per week. The cytotoxicity of compounds was assessed by colorimetric CellTilter 96® Aqueous One Solution Cell Proliferation Assay (Promega, USA), containing a tetrazolium compound according to the manufacturer’s instructions. In brief, 7 × 10^3 HaCaT cells per well were plated on 96-well plates and incubated per night to adhere to the cultured dishes. After that time, different concentrations of the tested compounds ranging from 512 to 1 μg/mL were applied to the wells. Every compound was medium-soluble at 37 °C; thus, the non-treated cells were negative control. Serial dilutions of the tested compounds were always prepared before use. Cells were incubated with drugs for 24 h, and then, 20 μL of the CellTiter 96®AqueousOne Solution Reagent was added to each well containing treated cells in 100 µl of culture medium. After 4 h of incubation at 37 °C, the absorbance at 490 nm was recorded using a microplate reader (Epoch, BioTek Instruments, USA). The quantity of formazan product as measured by the amount of 490 nm absorbance is directly proportional to the number of living cells in culture. Benzalkonium chloride (Sigma-Aldrich, Germany) was used as reference compound. At least three independent experiments with two replicates were conducted for each concentration of a compound, and the IC50 values were calculated using GraphPad Prism 8 software.

Row | SMILES | MIC [1] [µg/mL] | MIC [2] [µg/mL] | MIC [3] [µg/mL] | MIC [4] [µg/mL] | MIC [5] [µg/mL] | MIC [6] [µg/mL] | MIC [7] [µg/mL] | HC50 [8] [µg/mL] | IC50 [9] [µg/mL]
1 | CCCCCCCCCCCCCC(=O)N[C@@H](CCCCN)C(=O)N[C@@H](CCCCN)C(=O)N[C@@H](CCCCN)C(=O)N[C@@H](CCCCN)C(N)=O [Peptide 4M, C14-KKKK-NH2] (Myristoyl-KKKK-NH2) | 16 (≈ 21.6 µM) | 32 (≈ 43.2 µM) | >512 | 512 (≈ 692 µM) | 256 (≈ 346 µM) | 256 (≈ 346 µM) | 512 (≈ 692 µM) | >512 | 252.20 ± 36.68 (≈ 341 µM)
2 | CCCCCCCCCCCCCC(=O)N[C@@H](CCCC[N+](C)(C)C)C(=O)N[C@@H](CCCC[N+](C)(C)C)C(=O)N[C@@H](CCCC[N+](C)(C)C)C(=O)N[C@@H](CCCC[N+](C)(C)C)C(N)=O [Peptide 4Mq, C14-K(Me3)^+K(Me3)^+K(Me3)^+K(Me3)^+-NH2] (Myristoyl-[Lys(Me3)][Lys(Me3)][Lys(Me3)][Lys(Me3)]-NH2) | 128 | >512 | >512 | >512 | >512 | >512 | >512 | >512 | >512
3 | CCCCCCCCCCCCCC(=O)N[C@@H](CCCCN)C(=O)N[C@@H](CCCCN)C(N)=O [Peptide 2M, C14-KK-NH2] | 32 (≈ 66.2 µM) | 16 (≈ 33.1 µM) | >512 | 512 (≈ 1060 µM) | 128 (≈ 265 µM) | 512 (≈ 1060 µM) | 256 (≈ 529 µM) | 345.21 ± 12.80 | 32.49 ± 4.84 (≈ 67.2 µM)
4 | CCCCCCCCCCCCCC(=O)N[C@@H](CCCC[N+](C)(C)C)C(N)=O [Peptide 1Mq, C14-K(Me3)^+-NH2] | 32 | 32 | >512 | 128 | 128 | 256 | 32 | 88.25 ± 1.57 | 24.81 ± 3.88
5 | CCCCCCCCCCCCCC(=O)N[C@@H](CCCC[N+](C)(C)C)C(=O)N[C@@H](CCCC[N+](C)(C)C)C(=O)N[C@@H](CCCC[N+](C)(C)C)C(N)=O [Peptide 3Mq, C14-K(Me3)^+K(Me3)^+K(Me3)^+-NH2] | 256 | >512 | >512 | >512 | >512 | >512 | >512 | >512 | >512
6 | CCCCCCCCCCCCCCCCCC(=O)N[C@@H](CCCC[N+](C)(C)C)C(=O)N[C@@H](CCCC[N+](C)(C)C)C(=O)N[C@@H](CCCC[N+](C)(C)C)C(=O)N[C@@H](CCCC[N+](C)(C)C)C(N)=O [Peptide 4Sq, C18-K(Me3)^+K(Me3)^+K(Me3)^+K(Me3)^+-NH2] (Stearoyl-[Lys(Me3)][Lys(Me3)][Lys(Me3)][Lys(Me3)]-NH2) | 16 | 64 | 256 | 256 | 512 | 64 | 512 | >512 | >512
7 | CCCCCCCCCCCCCCCC(=O)N[C@@H](CCCC[N+](C)(C)C)C(=O)N[C@@H](CCCC[N+](C)(C)C)C(=O)N[C@@H](CCCC[N+](C)(C)C)C(N)=O [Peptide 3Pq, C16-K(Me3)^+K(Me3)^+K(Me3)^+-NH2] | 32 | 256 | >512 | >512 | >512 | 512 | >512 | >512 | >512
8 | CCCCCCCCCCCCCCCC(=O)N[C@@H](CCCC[N+](C)(C)C)C(N)=O [Peptide 1Pq, C16-K(Me3)^+-NH2] | 16 | 16 | 512 | 64 | >512 | 256 | 8 | 32.21 ± 1.97 | 19.25 ± 9.34
9 | CCCCCCCCCCCCCC(=O)N[C@@H](CCCCN)C(N)=O [Peptide 1M, C14-K-NH2] | 16 (≈ 45 µM) | 16 (≈ 45 µM) | >512 | >512 | >512 | >512 | >512 | 477.61 ± 28.02 | 4.33 ± 1.12 (≈ 12.2 µM)
10 | CCCCCCCCCCCCCCCCCC(=O)N[C@@H](CCCC[N+](C)(C)C)C(=O)N[C@@H](CCCC[N+](C)(C)C)C(=O)N[C@@H](CCCC[N+](C)(C)C)C(N)=O [Peptide 3Sq, C18-K(Me3)^+K(Me3)^+K(Me3)^+-NH2] | 16 | 64 | 256 | 128 | 512 | 64 | 128 | 385.50 ± 71.51 | 474.64 ± 29.06
11 | CCCCCCCCCCCCCCCC(=O)N[C@@H](CCCC[N+](C)(C)C)C(=O)N[C@@H](CCCC[N+](C)(C)C)C(N)=O [Peptide 2Pq, C16-K(Me3)^+K(Me3)^+-NH2] | 16 | 16 | 512 | 128 | 512 | 512 | 64 | 133.32 ± 6.27 | 99.62 ± 9.65
12 | CCCCCCCCCCCCCC(=O)N[C@@H](CCCCN)C(=O)N[C@@H](CCCCN)C(=O)N[C@@H](CCCCN)C(N)=O [Peptide 3M, C14-KKK-NH2] | 32 (≈ 52.3 µM) | 64 (≈ 105 µM) | >512 | 512 (≈ 837 µM) | 128 (≈ 209 µM) | 256 (≈ 418 µM) | 512 (≈ 837 µM) | >512 | 237.60 ± 31.18 (≈ 388 µM)
